Counter-ions that a name gives are not always drawn. Where a SMILES comes first, the peptide text is derived from it.
What was measured:
Assay type in all cases: cell-based
[1] = system: collagen I and collagen III; assay: Semi-activated LX2 cells, qPCR: collagen I and collagen III at the mRNA level; details: 48 hours, Q-PCR, Table 2
Experimental: (§1) Test compounds were added to the LX-2 cells respectively, and total RNA in the cells was extracted 48 hours later. This experiment was performed strictly in accordance with the instructions of the Total RNA Kit. The steps were as follows (note: this experiment was performed on ice throughout the entire process, and special RNase-free tips were used throughout the entire process): • 1) The 12-well cell culture plate was taken out from the incubator, the cell culture medium was discarded, the cells were washed twice with 1 mL of 1×PBS, and a negative pressure suction device was used to fully remove PBS; • 2) 350 μL of TRK Lysis Buffer mixture/well was prepared as needed (mixture preparation method: 1 mL of TRKLysis Buffer+20 μL of β-mercaptoethanol), vortexed and mixed well. 350 μL was added to each well of the 12-well cell culture plate, and allowed to stand at room temperature for 5 minutes to fully lyse the cells; • 3) 70% ethanol/well was prepared as needed, vortexed and mixed well. 350 μL was added to each well of the 12-well cell culture plate, mixed well by shaking, and transferred to the spin column (spin column+collection tube were assembled); • 4) Centrifugation was performed at 4° C., 12000 g for 60 sec. The waste liquid was discarded after centrifugation, while the spin column was kept; • 5) 500 μL of RNA Wash Buffer I was added, centrifuged at 4° C., 12000 g for 60 sec, the waste liquid was discarded after centrifugation, and the collection column was kept; • 6) 500 μL of RNA Wash Buffer II (confirmed that ethanol had been added) was added, centrifuged at 4° C., 12000 g for 60 sec, the waste liquid was discarded after centrifugation, and the collection column was kept; • 7) step 6) was repeated once again, centrifugation was performed at 4° C., 12000 g for 90 sec, the waste liquid was discarded after centrifugation, and the collection column was kept; • 8) Centrifugation was performed at 4° C., 12000 g for 120 sec to ensure that the spin column was fully dried; • 9) The dried spin column was inserted into a new 1.5 mL EP tube, and 30 μL of DEPC water was added to the membrane in the center of the spin column. It should be careful not to touch the EP tube cover in this step. It was allowed to stand at room temperature for 5 minutes to ensure that the RNA was fully dissolved in DEPC water. Centrifugation was performed at 4° C., 12000 g for 60 sec, and the EP tube was kept; • 10) NanoDrop ultra-micro-volume spectrophotometer was used to detect RNA concentration;
(§2) 5.3 Q-PCR detection of target gene expression: According to the instructions of Power SYBR® Green PCR Master Mix, the specific operations were as follows:
LX2 cells were passaged and plated normally. After adherent growth for 12 hours, 50 µM of the test compound was added. After 48 hours, the cells were collected, total RNA was extracted, and Q-PCR was used to detect the changes in the mRNA expression levels of liver fibrosis-related genes (ACTA2 encoding α-SMA, COL1A1 and COLIA2 encoding collagen I, COL3A1 encoding collagen III, SMAD3 encoding Smad3) and inflammation-related genes (IL1β encoding IL-1β, TNFα encoding TNFα) (for specific methods, see 5. Q-PCR detection of target gene expression as described above). α-SMA was a marker of hepatic stellate cell activation, and collagen I and collagen III were the main components of extracellular matrix deposition. […]

[2] = system: COL1A1; assay: In vitro efficacy in semi-activated LX2 cells, qPCR: COL1A1; details: 48 hours, Q-PCR; for inhibition at 50 µM: LX-2, 50 µM; for inhibition at 12.5 µM: LX-2, test concentration 12.5 μM; for inhibition at 100 µM: LX-2, test concentration 100 μM
Experimental: as §1
(§3) 5.2 Reverse transcription of RNA into cDNA: According to the instructions of PrimeScript™ RT reagent Kit (Perfect Real Time), the specific experimental steps were as follows:
as §2
(§4) After the reaction was completed, the amplification curve and dissolution curve of Q-PCR were confirmed, and the relative quantification method ([…]) was used to perform data analysis on the experimental results.
(§5) LX2 cells were passaged and plated normally. […] After 48 hours, the cells were collected, total RNA was extracted, and Q-PCR was used to detect the changes in the mRNA expression levels of liver fibrosis-related genes (ACTA2 encoding α-SMA, COL1A1 and COLIA2 encoding collagen I, COL3A1 encoding collagen III, SMAD3 encoding Smad3) and inflammation-related genes (IL1β encoding IL-1β, TNFα encoding TNFα) (for specific methods, see 5. Q-PCR detection of target gene expression as described above). α-SMA was a marker of hepatic stellate cell activation, and collagen I and collagen III were the main components of extracellular matrix deposition.

[3] = system: Smad3; assay: In vitro efficacy in semi-activated LX2 cells, qPCR: Smad3; details: 48 hours, Q-PCR; for inhibition at 50 µM: LX-2, 50 µM
Experimental: as §1, §3, §2, §4, §5

[4] = system: COL3A1; assay: In vitro efficacy in semi-activated LX2 cells, qPCR: COL3A1; details: 48 hours, Q-PCR; for inhibition at 12.5 µM: LX-2, test concentration 12.5 μM; for inhibition at 50 µM: LX-2, 50 µM; for inhibition at 100 µM: LX-2, test concentration 100 μM
Experimental: as §1, §3, §2, §4, §5

[5] = system: α-SMA; assay: In vitro efficacy in semi-activated LX2 cells, qPCR: α-SMA; details: 48 hours, Q-PCR; for inhibition at 12.5 µM / inhibition at 50 µM / inhibition at 100 µM: read-out: α-SMA mRNA inhibition rate; for inhibition of the expression of α-SMA at the mRNA level: Table 2; for inhibition at 100 µM: test concentration 100 μM
Experimental: as §1, §3, §2, §4, §5

[6] = system: IL-1β; assay: In vitro efficacy in semi-activated LX2 cells, qPCR: IL-1β; details: 48 hours, Q-PCR
Experimental: as §1, §3, §2, §4, §5

[7] = Homo sapiens, read-out: COL1A1 mRNA inhibition rate
[8] = Homo sapiens, read-out: COL3A1 mRNA inhibition rate
[9] = Homo sapiens, read-out: Smad3 mRNA inhibition rate

CCC(=O)N[C@@H](CC(=O)O)C(=O)OC [Compound 66, 1-methyl propionyl-L-aspartic acid ester]
inhibition of the expression of collagen I and collagen III at the mRNA level [1]: could inhibit
inhibition at 50 µM [2, 7]: 25 to 50%

N[C@@H](CC(=O)O)C(=O)OCOC(=O)[C@@H](N)CC(=O)O [Compound 57, (3S,3'S)-4,4′-(methylenebis (oxy))bis (3-amino-4-oxobutyric acid) hydrochloride]
inhibition at 25 µM ([3]; Homo sapiens, LX-2, test concentration 25 μM, read-out: Smad3 mRNA inhibition rate): 1 to 10%

CCOC(=O)C[C@H](N)C(=O)OCOC(=O)[C@@H](N)CC(=O)OCC [Compound 72, hydrochloride]
inhibition of the expression of collagen I and collagen III at the mRNA level [1]: could inhibit
inhibition at 25 µM ([2]; Homo sapiens, LX-2, test concentration 25 μM, read-out: COL1A1 mRNA inhibition rate): 25 to 50%
inhibition at 25 µM ([4]; Homo sapiens, LX-2, test concentration 25 μM, read-out: COL3A1 mRNA inhibition rate): 25 to 50%

COC(=O)C[C@H](N)C(=O)OCOC(=O)[C@@H](N)CC(=O)OC(C)C [Compound 71, 1-((((S)-2-amino-4-isopropoxy-4-oxobutyryl)oxy)methyl) 4-methyl L-aspartic acid ester hydrochloride]
inhibition of the expression of collagen I and collagen III at the mRNA level [1]: could inhibit
inhibition at 12.5 µM [2, 7]: 10 to 25%
inhibition at 12.5 µM [4, 8]: 1 to 10%

CCOC(=O)C[C@H](N)C(=O)O [Compound 35, 4-ethyl L-aspartic acid ester]
inhibition of the expression of collagen I and collagen III at the mRNA level [1]: could inhibit
inhibition at 50 µM [2, 7]: 10 to 25%
inhibition at 50 µM [4, 8]: 1 to 10%

N[C@@H](CC(=O)NC(c1ccccc1)(c1ccccc1)c1ccccc1)C(=O)O [Compound 27]
inhibition at 50 µM [3, 9]: 1 to 10%

COC(=O)[C@H](CC(=O)O)NC(C)=O [Compound 65, 1-methyl acetyl-L-aspartic acid ester]
inhibition at 12.5 µM [2, 7]: 10 to 25%
inhibition at 12.5 µM ([5]; test concentration 12.5 μM): 1 to 10%
inhibition at 12.5 µM [4, 8]: 1 to 10%

COC(=O)[C@H](Cc1ccccc1)NC(=O)C[C@H](N)C(=O)O [Compound 32]
inhibition at 50 µM [2, 7]: 10 to 25%
inhibition at 50 µM [5]: 1 to 10%
inhibition at 50 µM [4, 8]: 1 to 10%

COC(=O)C[C@H](N)C(=O)OC.Cl [Compound 7]
IL-1β mRNA inhibition rate ([6]; test concentration 25 μM): E (E represented that the inhibition rate was 1% to 10%)

CC(C)OC(=O)C[C@H](N)C(=O)OCOC(=O)[C@@H](N)CC(=O)OC(C)C [Compound 73, 4-diisopropyl O′1,O1-methylene (2S,2'S)-bis (2-aminosuccinate) hydrochloride]
inhibition of the expression of α-SMA at the mRNA level [5]: could inhibit
inhibition at 12.5 µM ([5]; test concentration 12.5 μM): 10 to 25%

CCOC(=O)C[C@H](N)C(=O)OCOC(=O)[C@@H](N)CC(=O)OC [Compound 70, 1-((((S)-2-amino-4-ethoxy-4-oxobutyryl)oxy)methyl) 4-methyl L-aspartic acid ester hydrochloride]
inhibition of the expression of collagen I and collagen III at the mRNA level [1]: could inhibit
inhibition at 100 µM [2, 7]: 1 to 10%
inhibition of the expression of α-SMA at the mRNA level [5]: could inhibit
inhibition at 100 µM [5]: 50 to 75%
inhibition at 100 µM [4, 8]: 10 to 25%

COC(=O)C[C@H](N)C(=O)OC(C)OC(=O)[C@@H](N)CC(=O)OC [Compound 68, O′1,O1-(ethan-1,1-diyl)4-dimethyl (2S,2'S)-bis (2-aminosuccinate) hydrochloride]
inhibition at 100 µM [2, 7]: 1 to 10%
inhibition of the expression of α-SMA at the mRNA level [5]: could inhibit
inhibition at 100 µM [5]: 25 to 50%
inhibition at 100 µM [4, 8]: 1 to 10%

CC(C)(C)OC(=O)N[C@@H](CC(=O)O)C(=O)OCc1ccccc1 [Compound 21]
inhibition of the expression of collagen I and collagen III at the mRNA level [1]: could inhibit
inhibition at 50 µM [2, 7]: 1 to 10%
inhibition at 50 µM [5]: 1 to 10%
inhibition at 50 µM [4, 8]: 10 to 25%
inhibition at 50 µM [3, 9]: 1 to 10%

N[C@@H](CC(=O)O)C(=O)OCc1ccccc1 [Compound 20]
COL1A1 mRNA inhibition rate ([2]; test concentration 12.5 μM): E (E represented that the inhibition rate was 1% to 10%)
α-SMA mRNA inhibition rate ([5]; test concentration 12.5 μM): E (E represented that the inhibition rate was 1% to 10%)
COL3A1 mRNA inhibition rate ([4]; test concentration 12.5 μM): E (E represented that the inhibition rate was 1% to 10%)
Smad3 mRNA inhibition rate ([3]; test concentration 12.5 μM): E (E represented that the inhibition rate was 1% to 10%)

COC(=O)C[C@H](N)C(=O)OCOC(=O)C[C@H](N)C(=O)OC.Cl [Compound 74, 4-((((S)-2-amino-4-methoxy-4-oxobutyryl)oxy)methyl)1-methyl L-aspartic acid ester hydrochloride]
inhibition of the expression of collagen I and collagen III at the mRNA level [1]: could inhibit
inhibition at 100 µM [2, 7]: 25 to 50%
inhibition at 100 µM [5]: 25 to 50%
inhibition at 100 µM [4, 8]: 25 to 50%

COC(=O)[C@H](CC(=O)O)NC(=O)OCc1ccccc1 [Compound 25]
inhibition at 50 µM [2, 7]: 1 to 10%
inhibition at 50 µM [5]: 1 to 10%

COC(=O)C[C@H](NC(=O)[C@H](C)N)C(=O)O [Compound 67, (S)-2-((S)-2-aminopropionamido)-4-methoxy-4-oxobutyric acid hydrochloride] (HELM PEPTIDE1{A.D}|CHEM1{[CO[*:1]]}$PEPTIDE1,CHEM1,2:R3-1:R1$$$V2.0)
inhibition at 50 µM [4, 8]: 1 to 10%

CC(C)OC(=O)OCOC(=O)[C@@H](N)CC(=O)O [Compound 51, 1-(((isopropoxycarbonyl)oxy)methyl) L-aspartic acid ester hydrochloride]
inhibition at 50 µM [5]: 1 to 10%

COC(=O)[C@H](CC(=O)O)NC(=O)OCC1c2ccccc2-c2ccccc21 [Compound 5]
inhibition at 50 µM ([6]; Homo sapiens, LX-2, 50 µM, read-out: IL-1β mRNA inhibition rate): 1 to 10%

CC(C)(C)OC(=O)N[C@@H](CC(=O)OCc1ccccc1)C(=O)O [Compound 24]
inhibition at 50 µM [2, 7]: 1 to 10%
inhibition at 50 µM [4, 8]: 1 to 10%

N[C@H](C(=O)O)[C@@H](N)C(=O)O [Compound 43]
inhibition at 50 µM [5]: 1 to 10%
inhibition at 50 µM [4, 8]: 1 to 10%
inhibition at 50 µM [3, 9]: 1 to 10%

O=C(O)C[C@H](NC(=O)C1CC1)C(=O)O [Compound 60, (cyclopropylcarbonyl)-L-aspartic acid]
inhibition at 50 µM [5]: 1 to 10%
inhibition at 50 µM [3, 9]: 1 to 10%

C[C@@H](NC(=O)[C@@H](N)CC(=O)O)C(=O)NC1C(C)(C)SC1(C)C [Compound 38]
inhibition of the expression of collagen I and collagen III at the mRNA level [1]: could inhibit
inhibition at 50 µM [2, 7]: 25 to 50%
inhibition at 50 µM [4, 8]: 1 to 10%

COC(=O)C[C@H](NC(C)=O)C(=O)O [Compound 63, 4-methyl acetyl-L-aspartic acid ester]
inhibition of the expression of collagen I and collagen III at the mRNA level [1]: could inhibit
inhibition at 50 µM [5]: 1 to 10%
inhibition at 50 µM [4, 8]: 10 to 25%

From patent US20250025438A1, “Derivative of aspartic acid and use thereof in treatment of metabolic diseases such as hepatic fibrosis and non-alcoholic hepatitis” (SHENZHEN JINGTAI TECHNOLOGY CO., LTD., priority 2021, published 2025)
